Here are results for one molecule from PubChem BioAssay (NCI).

Among the test systems are KM20L2 colon; SNB-78 CNS; XF 498 CNS; SN12K1 renal; HOP-18 NSCLC; DMS 273 small cell lung; DLD-1 colon; P388/ADR leukemia.
Holding throughout (assay): NCI tumour cell line growth inhibition, 48 h

“And” between values parts separate entries of the source, which are not always exact repeats. Identical values can stand only once.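 In this assay, cells in 96-well plates receive the compound at five concentrations for 48 hours. Endpoints are linearly interpolated between the surrounding concentrations. GI50 marks 50% less growth. The concentration for full growth arrest is given as TGI.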

Turning to `CC[C@@]1(O)C(=O)OCc2c1cc1n(c2=O)Cc2cc3cc(O)ccc3nc2-1`, the GI50 is 0.186 µM in the test with KM20L2 colon; 0.213 µM with SNB-78 CNS; 0.0518 µM in the test with XF 498 CNS; 0.0272 µM and 0.0217 µM in the test with DMS 273 small cell lung; 0.514 µM with DLD-1 colon. Moreover, the TGI in the test with KM20L2 colon was 8.14 µM and 4.97 µM; with SNB-78 CNS, 18.1 µM and > 100 µM; with XF 498 CNS it was 0.183 µM and 0.472 µM; in the test on SN12K1 renal it was 0.937 µM; in the test with HOP-18 NSCLC it was 5.2 µM; in the test on DMS 273 small cell lung, 0.47 µM and 1.74 µM. Further, the TGI with DLD-1 colon was 75 µM and > 87.2 µM; in the test with P388/ADR leukemia, 1.03 µM.
